This note sets out measurements from patent US10098350B2, “Fungicidal amides” (E. I. DU PONT DE NEMOURS AND COMPANY, priority 2013, dated 2018).

Holding throughout (format): in vivo
Assay [1] deals with Septoria tritici. Briefly: Test C: wheat seedlings sprayed with test suspension, inoculated with Septoria tritici (wheat leaf blotch), visual disease rating. The method, boiled down: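 Wheat seedlings sprayed to run-off with compound suspended in acetone/water with 250 ppm Trem 014, at 10, 40, 50 or 200 ppm (40–800 g ai/ha). Inoculated with Septoria tritici spores the next day, held 48 h saturated at 24 °C, then 21 days at 20 °C. Visual rating 0–100% disease control relative to controls.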

In assay [2] the test system is Erysiphe graminis f. sp. tritici. Briefly: Test E: wheat seedlings sprayed with test suspension, inoculated with Erysiphe graminis f. sp. tritici (wheat powdery mildew), visual disease rating. The method, boiled down: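 Wheat seedlings sprayed to run-off with compound suspension (acetone 3%, acetone/water 50/50 with 250 ppm Trem 014) at 10, 40, 50 or 200 ppm (40–800 g ai/ha), inoculated next day with spore dust. Incubated 7 or 8 days at 20° C, then rated visually as % disease control relative to controls (0–100).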

For assay [3], the system named is Puccinia recondite f. sp. tritici. The experiment in a line: Test D: wheat seedlings sprayed with test suspension, inoculated with Puccinia recondite f. sp. tritici (wheat leaf rust), visual disease rating. The method, boiled down: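 Wheat seedlings were sprayed to run-off with compound suspended in 50/50 acetone–water containing 250 ppm Trem 014, at 10-200 ppm (40-800 g ai/ha). They were inoculated with rust spores the next day, then kept 24 h saturated at 20 °C and 6 days at 20 °C. Scores are visual % disease control versus untreated controls.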

For assay [4], the system named is Botrytis cinerea. Briefly: Test A: tomato seedlings sprayed with test suspension, inoculated with Botrytis cinerea (gray mold), visual disease rating. From the text: General protocol for preparing test suspensions for Tests A-E: the test compounds were first dissolved in acetone in an amount equal to 3% of the final volume and then suspended at the desired concentration (in ppm) in acetone and purified water (50/50 mix by volume) containing 250 ppm of the surfactant Trem® 014 (polyhydric alcohol esters). The resulting test suspensions were then used in Tests A-E. Samples were applied to plants at either a 10 ppm (**), 40 ppm, 50 ppm (*) or 200 ppm (#) test solution to the point of run-off on the test plants with the equivalent of a rate of 40 g ai/ha, 160 g ai/ha, 200 g ai/ha, or 800 g ai/ha, respectively.
The test suspension was sprayed to the point of run-off on tomato seedlings. The following day the seedlings were inoculated with a spore suspension of Botrytis cinerea (the causal agent of gray mold on many crops) and incubated in a saturated atmosphere at 20° C. for 48 h, and moved to a growth chamber at 27° C. for 2 days, after which time visual disease ratings were made.
Results for Tests A-E are given in Table A. In the Table, a rating of 100 indicates 100% disease control and a rating of 0 indicates no disease control (relative to the controls). A dash (-) indicates no test results.

Assay [5] has as its system Stagonospora nodorum (also known as Septoria nodorum). Briefly: Test B: wheat seedlings sprayed with test suspension, inoculated with Stagonospora nodorum (wheat glume blotch), visual disease rating. The gist of the method:
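Compounds in acetone/water 50/50 with 250 ppm Trem 014 were sprayed to run-off on wheat seedlings at 10, 40, 50 or 200 ppm (40–800 g ai/ha). Plants were inoculated next day, held 48 h saturated at 20 °C, then 6 days in a growth chamber at 20 °C. Visual rating 0–100% disease control relative to controls.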

Setting [6] is: Cmpd. No. marked '#' (other test rate; meaning of mark not shown).
[7] abbreviates: Cmpd. No. unmarked, 100 = 100% disease control, 0 = no control relative to controls.
The mark [8] stands for this setting: Cmpd. No. marked '*' (other test rate; meaning of mark not shown).

On to `Cn1cc(C(=O)N(Cc2ccc(-n3ccc(Cl)n3)cn2)C2CC2)c(C(F)F)n1` [compound 5], for which the “Test C rating (% disease control)” value is given as 80% in assay [1] (setting [6]) and 17% in assay [1] (setting [7]). Moreover, the “Test E rating (% disease control)” value in assay [2] (setting [6]) and in assay [2] (setting [7]) was 0% in each case. Moreover, the “Test D rating (% disease control)” value in assay [3] (setting [6]) was found to be 28%; in assay [3] (setting [7]), 0%. Moreover, the “Test A rating (% disease control)” value in assay [4] (setting [6]) and in assay [4] (setting [7]) was 0% throughout. Moreover, the “Test B rating (% disease control)” value in assay [5] (setting [6]) and in assay [5] (setting [7]) was 0% each time.
As for `Cn1cc(C(=O)N(Cc2ccc(-n3cc(Cl)cn3)cc2Cl)C2CC2)c(C(F)F)n1` [compound 20], the “Test C rating (% disease control)” value in assay [1] (setting [7]) is 94%. The “Test E rating (% disease control)” value in assay [2] (setting [7]) was 40%. Also, in assay [3] (setting [7]), the “Test D rating (% disease control)” value was determined as 79%. Also, the “Test A rating (% disease control)” value in assay [4] (setting [7]) was found to be 32%. In assay [5] (setting [7]), the “Test B rating (% disease control)” value is listed as 99%.
In the same order, the values of `Cc1nc(C(F)(F)F)c(C(=O)N(Cc2cccc(-n3ccc(C(F)(F)F)n3)c2)C2CC2)s1` [Compound 150] are 48%, 0%, 9%, 0% and 0%.
Regarding `Cn1cc(C(=O)N(Cc2ccc(-n3cc(Cl)cn3)cn2)C2CC2)c(C(F)F)n1` [compound 6], the “Test C rating (% disease control)” value is 67% in assay [1] (setting [6]) and 9% in assay [1] (setting [7]). In addition, the entries for the “Test E rating (% disease control)” value in assay [2] (setting [6]) and in assay [2] (setting [7]) were 13% and 0%, respectively. In addition, the “Test D rating (% disease control)” value in assay [3] (setting [6]) is listed as 28%; in assay [3] (setting [7]) it was 0%. Besides, the “Test A rating (% disease control)” value in assay [4] (setting [6]) and in assay [4] (setting [7]) was 0% in each case. For the same compound, the “Test B rating (% disease control)” value in assay [5] (setting [6]) is 98%; in assay [5] (setting [7]), 0%.
As to `Cc1ccsc1C(=O)N(Cc1cccc(-n2ccc(C(F)(F)F)n2)c1)C1CC1` [Compound 152], the “Test C rating (% disease control)” value in assay [1] (setting [7]) was determined as 0%. Further, in assay [2] (setting [7]), the “Test E rating (% disease control)” value came out at 0%. Further, the “Test D rating (% disease control)” value in assay [3] (setting [7]) is given as 0%. In assay [4] (setting [7]), the “Test A rating (% disease control)” value amounted to 0%. In addition, the “Test B rating (% disease control)” value in assay [5] (setting [7]) is listed as 0%.
In the case of “N-cyclopropyl-3-(difluoromethyl)-1-methyl-N-[[3-[3-(trifluoromethyl)-1H-pyrazol-1-yl]phenyl]methyl]-1H-pyrazole-4-carboxamide [Compound 9]”, the figures for the “Test C rating (% disease control)” value in assay [1] (setting [6]) and in assay [1] (setting [7]) were 96% and 43%, respectively. The “Test E rating (% disease control)” value is 43% in assay [2] (setting [6]) and 0% in assay [2] (setting [7]). Also, the “Test D rating (% disease control)” value in assay [3] (setting [6]) and in assay [3] (setting [7]) was 0% in each case. In addition, the “Test A rating (% disease control)” value in assay [4] (setting [6]) and in assay [4] (setting [7]) was 0% throughout. Besides, the “Test B rating (% disease control)” value in assay [5] (setting [6]) and in assay [5] (setting [7]) was 0% each time.
As for `Cn1nc(C(F)F)c(C(=O)N(Cc2cccc(-n3ccc(C(F)(F)F)n3)c2)C2CC2)c1F` [Compound 3, N-cyclopropyl-3-(difluoromethyl)-5-fluoro-1-methyl-N-[[3-[3-(trifluoromethyl)-1H-pyrazol-1-yl]phenyl]methyl]-1H-pyrazole-4-carboxamide], in assay [1] (setting [7]), the “Test C rating (% disease control)” value was found to be 100%. The “Test E rating (% disease control)” value in assay [2] (setting [7]) is reported as 99%. In assay [3] (setting [7]), the “Test D rating (% disease control)” value came to 99%. Besides, the “Test A rating (% disease control)” value in assay [4] (setting [7]) came out at 0%. Moreover, in assay [5] (setting [7]), the “Test B rating (% disease control)” value is reported as 100%.
Regarding `CC(c1ncc(-n2ccc(C(F)(F)F)n2)cc1Cl)N(C(=O)c1cn(C)nc1C(F)F)C1CC1` (stereo not drawn) [compound 17], in assay [1] (setting [7]), the “Test C rating (% disease control)” value stood at 99%. Besides, in assay [2] (setting [7]), the “Test E rating (% disease control)” value amounted to 92%. Further, the “Test D rating (% disease control)” value in assay [3] (setting [7]) was found to be 23%. In assay [4] (setting [7]), the “Test A rating (% disease control)” value was 0%. Moreover, the “Test B rating (% disease control)” value in assay [5] (setting [7]) amounted to 100%.
In the same order, the values of `Cc1nc(C(F)(F)F)c(C(=O)N(Cc2ccc(-n3ccc(C(F)(F)F)n3)cc2Cl)C2CC2)s1` [Compound 151] are 87%, 0%, 23%, 23% and 0%.
In the same order, the values of `COc1ccc(-n2ccc(C(F)(F)F)n2)cc1CN(C(=O)c1cn(C)nc1C(F)F)C1CC1` [compound 14] are 83%, 92%, 32%, 0% and 42%.
In the same order, the values of `Cn1cc(C(=O)N(Cc2cccc(-n3ccc(C(F)(F)F)n3)c2)C2CC2)c(C(F)(F)F)n1` [Compound 149] are 43%, 0%, 0%, 0% and 0%.
On to `Cn1cc(C(=O)N(Cc2ccc(-n3ccc(C(F)(F)F)n3)cc2Cl)C2CC2)c(C(F)(F)F)n1` [Compound 35], for which, in assay [1] (setting [7]), the “Test C rating (% disease control)” value turned out to be 89%. Further, in assay [2] (setting [7]), the “Test E rating (% disease control)” value stood at 0%. Further, the “Test D rating (% disease control)” value in assay [3] (setting [7]) was 9%. For the same compound, the “Test A rating (% disease control)” value in assay [4] (setting [7]) was 0%. Also, the “Test B rating (% disease control)” value in assay [5] (setting [7]) is recorded as 0%.
Regarding `Cn1cc(C(=O)N(Cc2cnc(-n3ccc(C(F)(F)F)n3)cc2Cl)C2CC2)c(C(F)(F)F)n1` [Compound 148], in assay [1] (setting [8]), the “Test C rating (% disease control)” value is listed as 9%. In addition, the “Test E rating (% disease control)” value in assay [2] (setting [8]) stood at 0%. Also, in assay [3] (setting [8]), the “Test D rating (% disease control)” value came to 0%. For the same compound, the “Test A rating (% disease control)” value in assay [4] (setting [8]) is 0%. In assay [5] (setting [8]), the “Test B rating (% disease control)” value was 0%.
Turning to `Cn1cc(C(=O)N(Cc2cccc(-n3ccc(C(F)(F)F)n3)c2C(F)(F)F)C2CC2)c(C(F)F)n1` [compound 41], the “Test C rating (% disease control)” value in assay [1] (setting [7]) turned out to be 94%. In addition, in assay [2] (setting [7]), the “Test E rating (% disease control)” value is 40%. Also, the “Test D rating (% disease control)” value in assay [3] (setting [7]) amounted to 23%. For the same compound, the “Test A rating (% disease control)” value in assay [4] (setting [7]) came to 0%. For the same compound, the “Test B rating (% disease control)” value in assay [5] (setting [7]) turned out to be 0%.
Consider `Cn1cc(C(=O)N(Cc2ccc(-n3ccc(-c4ccccc4)n3)cn2)C2CC2)c(C(F)F)n1` [compound 8], for which the “Test C rating (% disease control)” value in assay [1] (setting [6]) is given as 88%; in assay [1] (setting [7]), 27%. The “Test E rating (% disease control)” value in assay [2] (setting [6]) and in assay [2] (setting [7]) was 0% throughout. Besides, the “Test D rating (% disease control)” value is on record as 74% in assay [3] (setting [6]) and 0% in assay [3] (setting [7]). Besides, the “Test A rating (% disease control)” value in assay [4] (setting [6]) and in assay [4] (setting [7]) was 0% each time. The “Test B rating (% disease control)” value in assay [5] (setting [6]) and in assay [5] (setting [7]) was 0% each time.
Consider `Cn1cc(C(=O)N(Cc2ccc(-n3cc(Br)cn3)cc2Cl)C2CC2)c(C(F)F)n1` [Compound 10], for which the “Test C rating (% disease control)” value in assay [1] (setting [7]) stood at 38%. Also, the “Test E rating (% disease control)” value in assay [2] (setting [7]) turned out to be 0%. Moreover, the “Test D rating (% disease control)” value in assay [3] (setting [7]) is given as 86%. The “Test A rating (% disease control)” value in assay [4] (setting [7]) was determined as 0%. Also, in assay [5] (setting [7]), the “Test B rating (% disease control)” value was 99%.
Take `Cc1ccc(CN(C(=O)c2cn(C)nc2C(F)F)C2CC2)cc1-n1ccc(C(F)(F)F)n1` [compound 27]: in assay [1] (setting [7]), the “Test C rating (% disease control)” value came out at 38%. In assay [2] (setting [7]), the “Test E rating (% disease control)” value stood at 21%. The “Test D rating (% disease control)” value in assay [3] (setting [7]) worked out at 31%. For the same compound, the “Test A rating (% disease control)” value in assay [4] (setting [7]) was 0%. Moreover, the “Test B rating (% disease control)” value in assay [5] (setting [7]) was 92%.
